Assay results taken from patent publication US4446149A, “Medicine for treatment of cervical erosion” (priority 1981, dated 1984).
Entries after “also recorded” stand apart in the source; their conditions may differ. Where two headings read alike, the source gives them in different places.

Key:
[1] = Acute toxicity of L-carnosine (peritoneal and oral); assay type: in vivo; details: mouse, in vivo; for LD50 at 72 h: dd strain male mice
Method: (§1) […] LD50 was computed by the Van der Waerden method based on the number of dead mice after 72 hours. In the examination, L-carnosine was diluted with a physiological saline so that its administration concentration would be 0.1-0.3 ml/10 g.

dd strain male mice = assay: as above; assay type: in vivo
Method: as §1

[2] = cited from earlier work
[3] = cited from earlier work; remark: listed apart in the source
carnosinase = details: taken into the body; with the aid of carnosinase; cited from earlier work
[4] = peritoneal 15,000 mg/kg, after about 30 minutes

Question: For `NCCC(=O)N[C@@H](Cc1cnc[nH]1)C(=O)O` [L-carnosine, β-alanyl-L-histidine], which mortality at 12 h ([1]; 15000 mg/kg, oral 15,000 mg/kg, after 12 hours, read-out: mice died) is on record?
Answer: The mortality at 12 h was 10%.

Question: And the mortality at 2 h ([1]; ip, 15000 mg/kg, peritoneal 15,000 mg/kg, after 2 hours, read-out: experimental animals died)?
Answer: The mortality at 2 h was 80%.

Question: What about the LD50 at 72 h ([1]; ip, peritoneal, Van der Waerden method, 72 hours (75-hour value elsewhere in the source), read-out: LD50 at 95% level of confidence) of the same molecule?
Answer: The LD50 at 72 h was 9090 mg/kg.

Question: What about the LD50 at 72 h ([1]; oral, (the minimum lethal dose), read-out: LD50) of the same molecule?
Answer: The LD50 at 72 h was > 14900 mg/kg.

Question: What about the “toxicity (overall)” value (dd strain male mice; acute toxicity test, dd strain male mice) of the same molecule?
Answer: The value was “quite low toxicity”.

Question: And the “appreciable effect (symptoms)” value (dd strain male mice; oral 15,000 mg/kg)?
Answer: The value was “did not show any appreciable effect”.

Question: And the “symptoms when further advanced” value (dd strain male mice; peritoneal 15,000 mg/kg)?
Answer: Its value is “the animals repeated horizontal rollings and upon contact stimulation the reflex became hyperreactive with an attendant spasm, leading to ultimate death”.

Question: What about the “symptoms: raising of the tails and clonospasm” value (dd strain male mice; peritoneal 15,000 mg/kg, about 30 minutes after administration) of the same molecule?
Answer: Its value is “seen in as many as half of the experimental animals”.

Question: What about the experimental animals died (dd strain male mice; peritoneal 15,000 mg/kg, after 1 hour and 30 minutes) of the same molecule?
Answer: Its experimental animals died is “Half”.

Question: And the experimental animals died (dd strain male mice; peritoneal 15,000 mg/kg, after 5 hours)?
Answer: The experimental animals died was “all of the experimental animals died”.

Question: And the “symptoms: frontal or escape reflexes” value (dd strain male mice; [4])?
Answer: The value was “no frontal or escape reflexes”.

Question: And the “symptoms: spontaneous movement and respiration” value (dd strain male mice; [4])?
Answer: Its value is “a reduction in spontaneous movement accompanied by an irregular or decreased number of respirations”.

Question: What about the LD100 (dd strain male mice; peritoneal, mice) of the same molecule?
Answer: The LD100 was 15,000 mg/kg.

Question: And the solubility in water [2]?
Answer: Its solubility in water is “easily soluble in water; also recorded: readily soluble in water”.

Question: And the “pH value of its aqueous solution” value [3]?
Answer: Its value is 8.0-8.5.

Question: What about the metabolism (carnosinase) of the same molecule?
Answer: The metabolism was “decomposed, with the aid of carnosinase, into L-histidine and β-alanine”.
